Source: article PMC8500670, “A selective WDR5 degrader inhibits acute myeloid leukemia in patient-derived mouse models” (Science translational medicine, 2021)
Read-outs that look alike come from different tables or passages of the source.

Columns and labels:
Experiment in all cases: biochemical
NSD3 = molecular target: T1, NSD3 (Homo sapiens, UniProt Q9BZ95); set-up: protein methyltransferase inhibition panel, single concentration, duplicate
T1 sequence (Q9BZ95 1-1437): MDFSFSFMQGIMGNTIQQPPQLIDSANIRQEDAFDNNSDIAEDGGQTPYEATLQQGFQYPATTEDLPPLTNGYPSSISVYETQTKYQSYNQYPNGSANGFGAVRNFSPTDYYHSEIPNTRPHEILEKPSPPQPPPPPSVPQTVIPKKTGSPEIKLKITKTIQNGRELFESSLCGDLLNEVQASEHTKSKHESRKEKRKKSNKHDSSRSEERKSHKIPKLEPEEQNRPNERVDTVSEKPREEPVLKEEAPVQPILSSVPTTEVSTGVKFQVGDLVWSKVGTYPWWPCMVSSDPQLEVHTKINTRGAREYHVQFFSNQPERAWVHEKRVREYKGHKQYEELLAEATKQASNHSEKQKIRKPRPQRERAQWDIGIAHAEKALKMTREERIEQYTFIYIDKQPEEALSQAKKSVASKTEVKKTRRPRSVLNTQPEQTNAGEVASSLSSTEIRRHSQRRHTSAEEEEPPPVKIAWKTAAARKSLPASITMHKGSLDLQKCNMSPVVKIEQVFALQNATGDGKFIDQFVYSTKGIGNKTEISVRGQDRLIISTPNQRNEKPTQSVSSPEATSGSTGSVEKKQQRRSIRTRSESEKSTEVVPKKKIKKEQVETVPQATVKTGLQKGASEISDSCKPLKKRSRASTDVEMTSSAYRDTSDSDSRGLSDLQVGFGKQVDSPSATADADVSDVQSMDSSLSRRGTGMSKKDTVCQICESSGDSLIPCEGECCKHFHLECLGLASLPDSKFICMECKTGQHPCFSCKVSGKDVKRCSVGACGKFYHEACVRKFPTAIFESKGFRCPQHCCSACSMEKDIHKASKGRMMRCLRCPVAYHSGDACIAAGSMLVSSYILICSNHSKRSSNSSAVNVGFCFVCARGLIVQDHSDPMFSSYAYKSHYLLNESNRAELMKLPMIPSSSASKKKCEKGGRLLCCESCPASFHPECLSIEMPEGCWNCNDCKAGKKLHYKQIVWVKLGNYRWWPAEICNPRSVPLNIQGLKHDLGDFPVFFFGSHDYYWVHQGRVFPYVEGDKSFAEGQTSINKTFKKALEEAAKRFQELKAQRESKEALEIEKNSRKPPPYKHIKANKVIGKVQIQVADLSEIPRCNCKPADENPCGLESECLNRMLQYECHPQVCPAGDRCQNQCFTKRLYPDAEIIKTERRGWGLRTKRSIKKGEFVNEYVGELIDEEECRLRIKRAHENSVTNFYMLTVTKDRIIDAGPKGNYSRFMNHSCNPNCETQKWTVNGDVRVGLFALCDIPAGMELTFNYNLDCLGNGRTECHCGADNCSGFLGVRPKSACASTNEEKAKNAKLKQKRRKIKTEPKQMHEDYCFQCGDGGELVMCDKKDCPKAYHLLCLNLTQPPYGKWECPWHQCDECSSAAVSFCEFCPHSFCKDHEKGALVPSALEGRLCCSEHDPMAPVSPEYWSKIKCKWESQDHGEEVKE
Experimental: (§1) We next assessed selectivity of MS67 against 22 protein methyltransferases (table S2) and a broad panel of common drug targets including 45 kinases (table S3) and 44 G protein–coupled receptors (GPCR), ion channels, and transporters (table S4). […] We subsequently determined that MS67 had moderate binding affinity (Ki = 1.0 ± 0.8 μM) to Sigma 2 receptor (fig. S10).

SET8 = molecular target: T2, SET8 (Homo sapiens, UniProt Q9NQR1); set-up: protein methyltransferase selectivity panel, enzyme activity relative to DMSO controls, single concentration in duplicate; settings: Substrate:=Nucleosomes
T2 construct: gene KMT5A
T2 sequence (Q9NQR1 1-393): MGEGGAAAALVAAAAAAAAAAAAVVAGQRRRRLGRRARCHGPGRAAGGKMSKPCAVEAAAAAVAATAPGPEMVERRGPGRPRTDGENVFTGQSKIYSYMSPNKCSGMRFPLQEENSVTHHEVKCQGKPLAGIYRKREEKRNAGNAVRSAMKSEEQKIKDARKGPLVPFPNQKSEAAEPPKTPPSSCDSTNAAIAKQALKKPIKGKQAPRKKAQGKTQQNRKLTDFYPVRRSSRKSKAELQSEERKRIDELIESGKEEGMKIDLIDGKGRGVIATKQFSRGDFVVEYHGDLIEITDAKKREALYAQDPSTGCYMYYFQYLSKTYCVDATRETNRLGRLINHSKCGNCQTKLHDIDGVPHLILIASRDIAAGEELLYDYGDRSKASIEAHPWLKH
Experimental: as §1

PRMT7 = molecular target: T3, PRMT7 (Homo sapiens, UniProt Q9NVM4); set-up: protein methyltransferase selectivity panel, enzyme activity relative to DMSO controls, single concentration in duplicate; settings: Substrate:=GST-GAR
T3 sequence (Q9NVM4 1-692): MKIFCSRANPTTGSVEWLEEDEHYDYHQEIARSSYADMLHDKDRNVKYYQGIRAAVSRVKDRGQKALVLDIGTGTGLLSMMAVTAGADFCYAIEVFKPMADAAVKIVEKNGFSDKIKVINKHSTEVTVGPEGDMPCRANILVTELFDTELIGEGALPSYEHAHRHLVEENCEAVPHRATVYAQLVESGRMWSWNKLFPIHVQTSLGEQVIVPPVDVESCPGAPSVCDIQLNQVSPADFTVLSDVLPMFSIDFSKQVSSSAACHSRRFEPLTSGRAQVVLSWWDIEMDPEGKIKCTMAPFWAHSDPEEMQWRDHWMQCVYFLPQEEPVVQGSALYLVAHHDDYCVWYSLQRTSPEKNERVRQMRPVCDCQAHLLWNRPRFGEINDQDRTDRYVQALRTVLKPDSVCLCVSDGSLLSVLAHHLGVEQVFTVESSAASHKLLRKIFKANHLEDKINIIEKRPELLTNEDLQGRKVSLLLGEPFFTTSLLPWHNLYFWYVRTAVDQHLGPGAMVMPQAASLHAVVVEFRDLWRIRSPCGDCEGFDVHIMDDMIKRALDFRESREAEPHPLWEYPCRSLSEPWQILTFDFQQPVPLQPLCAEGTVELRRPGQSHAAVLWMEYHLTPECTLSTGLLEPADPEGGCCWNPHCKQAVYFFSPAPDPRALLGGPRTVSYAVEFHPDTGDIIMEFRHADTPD
Experimental: as §1

SUV39H2 = SUV39H2 (Homo sapiens, UniProt Q9H5I1); set-up: protein methyltransferase selectivity panel, enzyme activity relative to DMSO controls, single concentration in duplicate; settings: Substrate:=Histone H3; read-out: Enzyme % Activity (relative to DMSO controls) / MS67 / 10 / Data 1:
Experimental: as §1

[1] = read-out: Enzyme % Activity (relative to DMSO controls) / MS67 / 10 / Data 1:
[2] = read-out: Enzyme % Activity (relative to DMSO controls) / MS67 / 10 / Data 2:

Sequence of SUV39H2 (Q9H5I1 whole entry): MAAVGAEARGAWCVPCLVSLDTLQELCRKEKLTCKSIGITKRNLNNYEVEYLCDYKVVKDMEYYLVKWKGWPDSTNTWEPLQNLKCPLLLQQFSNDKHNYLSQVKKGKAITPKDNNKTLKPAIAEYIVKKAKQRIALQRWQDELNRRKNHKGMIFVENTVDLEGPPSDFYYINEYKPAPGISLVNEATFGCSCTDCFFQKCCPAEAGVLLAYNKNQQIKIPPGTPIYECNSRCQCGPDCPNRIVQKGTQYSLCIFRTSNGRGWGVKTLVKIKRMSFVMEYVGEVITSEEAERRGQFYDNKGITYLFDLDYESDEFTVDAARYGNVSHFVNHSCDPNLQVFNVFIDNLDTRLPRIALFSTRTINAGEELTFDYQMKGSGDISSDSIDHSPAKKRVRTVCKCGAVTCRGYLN

SMILES: Cc1ncsc1-c1ccc([C@H](C)NC(=O)[C@@H]2C[C@@H](O)CN2C(=O)[C@@H](NC(=O)CNC(=O)c2ccc(F)c(-c3ccc(N4C[C@@H](C)N(C)[C@@H](C)C4)c(NC(=O)c4c[nH]c(=O)cc4C(F)(F)F)c3)c2)C(C)(C)C)cc1 [MS67]
- inhibition at 10 µM (NSD3): < 10%
- remaining activity at 10 µM (SET8; [1]): 112%
- remaining activity at 10 µM (SET8; [2]): 113%
- remaining activity at 10 µM (PRMT7; [1]): 100%
- remaining activity at 10 µM (PRMT7; [2]): 103%
- remaining activity at 10 µM (SUV39H2): 102%
